For the assay, the system named is c-myc in 22RV-1 cells. Briefly: Human c-myc ELISA assay. It is filed as cell-based. The settings on record: Homo sapiens; for Emax: 22Rv1, 18 h, read-out: Degradation of BRD4: Maximum inhibition (%) c-Myc ELISA in 22RV1 cells; for DC50: 22Rv1, read-out: Degradation of BRD4: DC50 (uM) c-Myc ELISA in 22RV1 cells. A digest of the protocol:
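c-myc levels measured by ELISA in RIPA lysates of 22RV-1 cells, calibrated with a 333-0 pg/ml standard curve. Lysates came from cells exposed for 18 h to an 8-point, 1:3 dose series starting at 300 nM or 1 μM final in 0.1% DMSO. Suppression potency given as DC50.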

For orientation: DC50 means the concentration at which degradation of the target reaches its halfway point. As to `Cc1ncsc1-c1ccc([C@H](C)NC(=O)[C@@H]2C[C@@H](O)CN2C(=O)[C@@H](NC(=O)CCc2cc(F)cc(O[C@H]3C[C@H](NC(=O)C[C@@H]4N=C(c5ccc(Cl)cc5)c5c(sc(C)c5C)-n5c(C)nnc54)C3)c2)C(C)(C)C)cc1` [Example 173, (2S,4R)-1-[(2S)-2-(3-{3-fluoro-5-[(1,3-trans)-3-{2-[(9S)-7-(4-chlorophenyl)-4,5,13-trimethyl-3-thia-1,8,11,12-tetraazatricyclo[8.3.0.0^2,^6]trideca-2(6),4,7,10,12-pentaen-9-yl]acetamido}cyclobutoxy]phenyl}propanamido)-3,3-dimethylbutanoyl]-4-hydroxy-N-[(1S)-1-[4-(4-methyl-1,3-thiazol-5-yl)phenyl]ethyl]pyrrolidine-2-carboxamide], the Emax is 98% and the DC50 is below 0.01 µM.
As to `Cc1ncsc1-c1ccc([C@H](C)NC(=O)[C@@H]2C[C@@H](O)CN2C(=O)[C@@H](C(C)C)n2cc(-c3cc(O[C@H]4C[C@H](NC(=O)C[C@@H]5N=C(c6ccc(Cl)cc6)c6c(sc(C)c6C)-n6c(C)nnc65)C4)ccn3)cn2)cc1` [Example 305], the Emax worked out at 6.7% and the DC50 was above 1 µM.
On the same counts, the results for `Cc1ncsc1-c1ccc(CNC(=O)[C@@H]2C[C@@H](O)CN2C(=O)[C@@H](NC(=O)COCCCCOc2ccc3c(c2)c2c(C(N)=O)cc(-c4c(C)noc4C)cc2n3Cc2ccccc2)C(C)(C)C)cc1` [Example 175] are 92% and 0.01 to 0.1 µM.
Consider `Cc1ncsc1-c1ccc(CNC(=O)[C@@H]2C[C@@H](O)CN2C(=O)[C@@H](NC(=O)COc2ccc(O[C@H]3C[C@@H](NC(=O)C[C@@H]4N=C(c5ccc(Cl)cc5)c5c(sc(C)c5C)-n5c(C)nnc54)C3)nc2)C(C)(C)C)cc1` [Example 118], for which the Emax is 94.4% and the DC50 was below 0.01 µM.
On the same counts, the results for `Cc1ncsc1-c1ccc([C@H](C)NC(=O)[C@@H]2C[C@@H](OC(=O)CC(C)(C)N)CN2C(=O)[C@@H](NC(=O)c2cc3cc(O[C@H]4C[C@@H](NC(=O)C[C@@H]5N=C(c6ccc(Cl)cc6)c6c(sc(C)c6C)-n6c(C)nnc65)C4)ccc3o2)C(C)(C)C)cc1` [Example 343] are 87% and 0.01 to 0.1 µM.
On the same counts, the results for `Cc1ncsc1-c1ccc(CNC(=O)[C@@H]2C[C@@H](O)CN2C(=O)[C@@H](C(C)C)n2cc(-c3cccc(O[C@H](C)CNC(=O)C[C@@H]4N=C(c5ccc(Cl)cc5)c5c(sc(C)c5C)-n5c(C)nnc54)c3)cn2)cc1` [Example 231] are 39.5% and above 1 µM.
On the same counts, the results for `Cc1ncsc1-c1ccc(CNC(=O)[C@@H]2C[C@@H](O)CN2C(=O)[C@@H](NC(=O)COc2ccccc2C(=O)N2CC[C@H](NC(=O)C[C@@H]3N=C(c4ccc(Cl)cc4)c4c(sc(C)c4C)-n4c(C)nnc43)C2)C(C)(C)C)cc1` [Example 87] are 96.4% and 0.01 to 0.1 µM.
As to `CC1=NN=C2C1c1sc(C)c(C)c1C(c1ccc(Cl)cc1)=N[C@H]2CC(=O)NCCOCCOCCC(=O)N[C@H](C(=O)N1C[C@H](O)CC1C(=O)N[C@@H](C)c1ccc(-c2scnc2C)cc1)C(C)(C)C` (some centres unmarked) [Example 136], the Emax is 96% and the DC50 lay in the range of 0.01 to 0.1 µM.
On the same counts, the results for `Cc1ncsc1-c1ccc([C@H](C)NC(=O)[C@@H]2C[C@@H](O)CN2C(=O)[C@@H](NC(=O)/C=C/c2cc(O[C@@H](C)CNC(=O)C[C@@H]3N=C(c4ccc(Cl)cc4)c4c(sc(C)c4C)-n4c(C)nnc43)ccc2F)C(C)(C)C)cc1` [Example 196] are 94.5% and below 0.01 µM.
Regarding `Cc1ncoc1-c1ccc(CNC(=O)[C@@H]2C[C@@H](O)CN2C(=O)[C@@H](NC(=O)COCCCOCCNC(=O)C[C@@H]2N=C(c3ccc(Cl)cc3)c3c(sc(C)c3C)-n3c(C)nnc32)C(C)(C)C)cc1` [Example 74], the Emax is 97% and the DC50 fell in the range of 0.01 to 0.1 µM.
On the same counts, the results for `Cc1ncsc1-c1ccc(CNC(=O)[C@@H]2C[C@@H](O)CN2C(=O)[C@@H](NC(=O)COCCN2CCN(c3ccc([C@@H](C)NC(=O)C[C@@H]4N=C(c5ccc(Cl)cc5)c5c(sc(C)c5C)-n5c(C)nnc54)cc3)CC2)C(C)(C)C)cc1` [Example 59] are 95% and 0.1 to 1 µM.
Turning to `Cc1ncoc1-c1ccc(CNC(=O)[C@@H]2C[C@@H](O)CN2C(=O)[C@H](C(C)C)n2cc(-c3ccnc(O[C@H]4C[C@@H](NC(=O)C[C@@H]5N=C(c6ccc(Cl)cc6)c6c(sc(C)c6C)-n6c(C)nnc65)C4)c3)cn2)cc1` [Example 295], the Emax was 93.8% and the half-maximal degradation concentration (DC50) was in the range of 0.1 to 1 µM.
On the same counts, the results for `Cc1ncsc1-c1ccc(CNC(=O)[C@@H]2C[C@@H](O)CN2C(=O)[C@@H](NC(=O)COCCCNC(=O)C[C@@H]2N=C(c3ccc(Cl)cc3)c3c(sc(C)c3C)-n3c(C)nnc32)C(C)(C)C)cc1` [Example 44] are 98% and 0.1 to 1 µM.
As for `Cc1ncsc1-c1ccc([C@H](C)NC(=O)[C@@H]2C[C@@H](O)CN2C(=O)[C@@H](NC(=O)COc2nccc(N3CCN(C(=O)C[C@@H]4N=C(c5ccc(Cl)cc5)c5c(sc(C)c5C)-n5c(C)nnc54)CC3)n2)C(C)(C)C)cc1` [Example 331], the Emax came out at 81.5% and the DC50 was 0.1 to 1 µM.
On the same counts, the results for `Cc1ncsc1-c1ccc([C@H](C)NC(=O)[C@@H]2C[C@@H](O)CN2C(=O)[C@@H](NC(=O)c2cc3cc(OCCNC(=O)C[C@@H]4N=C(c5ccc(Cl)cc5)c5c(sc(C)c5C)-n5c(C)nnc54)ccc3o2)C(C)(C)C)cc1` [Example 165, (2S,4R)-1-[(2S)-2-{[5-(2-{2-[(9S)-7-(4-chlorophenyl)-4,5,13-trimethyl-3-thia-1,8,11,12-tetraazatricyclo[8.3.0.0^2,^6]trideca-2(6),4,7,10,12-pentaen-9-yl]acetamido}ethoxy)-1-benzofuran-2-yl]formamido}-3,3-dimethylbutanoyl]-4-hydroxy-N-[(1S)-1-[4-(4-methyl-1,3-thiazol-5-yl)phenyl]ethyl]pyrrolidine-2-carboxamide] are 97% and below 0.01 µM.
Take `Cc1ncsc1-c1ccc(CNC(=O)[C@@H]2C[C@@H](O)CN2C(=O)[C@@H](NC(=O)COCCCCCOc2cccc(NC(=O)C[C@@H]3N=C(c4ccc(Cl)cc4)c4c(sc(C)c4C)-n4c(C)nnc43)c2)C(C)(C)C)cc1` [Example 125]: the Emax was found to be 99.5% and the DC50 is below 0.01 µM.
On the same counts, the results for `Cc1ncsc1-c1ccc(CNC(=O)[C@@H]2C[C@@H](O)CN2C(=O)[C@H](c2cc(OCCCCCNC(=O)C[C@@H]3N=C(c4ccc(Cl)cc4)c4c(sc(C)c4C)-n4c(C)nnc43)no2)C(C)C)cc1` [Example 120] are 79.5% and 0.1 to 1 µM.
Turning to `Cc1ncsc1-c1ccc([C@H](C)NC(=O)[C@@H]2C[C@@H](O)CN2C(=O)[C@@H](NC(=O)CN2CCN(C3CC4(C3)CN(C(=O)C[C@@H]3N=C(c5ccc(Cl)cc5)c5c(sc(C)c5C)-n5c(C)nnc53)C4)[C@H](C)C2)C(C)(C)C)cc1` [Example 355], the Emax was determined as 100% and the DC50 lay within 0.01 to 0.1 µM.
On the same counts, the results for `Cc1ncsc1-c1ccc([C@H](C)NC(=O)[C@@H]2C[C@@H](O)CN2C(=O)[C@H](C(C)C)n2cc(-c3ccc(N4CCN(C(=O)C[C@@H]5N=C(c6ccc(Cl)cc6)c6c(sc(C)c6C)-n6c(C)nnc65)CC4)nc3)cn2)cc1` [Example 320] are 97.8% and below 0.01 µM.
On the same counts, the results for `Cc1ncsc1-c1ccc([C@H](C)NC(=O)[C@@H]2C[C@@H](O)CN2C(=O)[C@@H](NC(=O)COc2ccnc(O[C@H]3C[C@@H](NC(=O)C[C@@H]4N=C(c5ccc(Cl)cc5)c5c(sc(C)c5C)-n5c(C)nnc54)C3)c2)C(C)(C)C)cc1` [Example 189] are 95.9% and 0.01 to 0.1 µM.
On the same counts, the results for `Cc1ncsc1-c1ccc([C@H](C)NC(=O)[C@@H]2C[C@@H](O)CN2C(=O)[C@@H](NC(=O)Cc2ccc(O[C@H]3C[C@H](NC(=O)C[C@@H]4N=C(c5ccc(Cl)cc5)c5c(sc(C)c5C)-n5c(C)nnc54)C3)cc2F)C(C)(C)C)cc1` [Example 249, (2S,4R)-1-[(2S)-2-(2-{2-fluoro-4-[(1r,3r)-3-{2-[(9S)-7-(4-chlorophenyl)-4,5,13-trimethyl-3-thia-1,8,11,12-tetraazatricyclo[8.3.0.0^2,^6]trideca-2(6),4,7,10,12-pentaen-9-yl]acetamido}cyclobutoxy]phenyl}acetamido)-3,3-dimethylbutanoyl]-4-hydroxy-N-[(1S)-1-[4-(4-methyl-1,3-thiazol-5-yl)phenyl]ethyl]pyrrolidine-2-carboxamide] are 98.5% and below 0.01 µM.
For the compound `Cc1ncsc1-c1ccc([C@H](C)NC(=O)[C@@H]2C[C@@H](O)CN2C(=O)[C@@H](NC(=O)CCc2cccc(OCCNC(=O)C[C@@H]3N=C(c4ccc(Cl)cc4)c4c(sc(C)c4C)-n4c(C)nnc43)c2)C(C)(C)C)cc1` [Example 85], the Emax came to 100% and the DC50 is below 0.01 µM.
On the same counts, the results for `Cc1ncsc1-c1ccc([C@H](C)NC(=O)[C@@H]2C[C@@H](O)CN2C(=O)[C@@H](NC(=O)CN2CCN(C3CC4(C3)CN(C(=O)C[C@@H]3N=C(c5ccc(Cl)cc5)c5c(sc(C)c5C)-n5c(C)nnc53)C4)C[C@H]2C)C(C)(C)C)cc1` [Example 356] are 100% and 0.01 to 0.1 µM.
On the same counts, the results for `Cc1ncsc1-c1ccc(CNC(=O)[C@@H]2C[C@@H](O)CN2C(=O)[C@@H](NC(=O)COCCOCCCOc2ccc([C@@H](C)NC(=O)C[C@@H]3N=C(c4ccc(Cl)cc4)c4c(sc(C)c4C)-n4c(C)nnc43)cc2)C(C)(C)C)cc1` [Example 29] are 96.8% and 0.01 to 0.1 µM.
On the same counts, the results for `Cc1ncoc1-c1ccc(CNC(=O)[C@@H]2C[C@@H](O)CN2C(=O)[C@@H](C(C)C)n2cc(-c3ccnc(O[C@H]4C[C@@H](NC(=O)C[C@@H]5N=C(c6ccc(Cl)cc6)c6c(sc(C)c6C)-n6c(C)nnc65)C4)c3)cn2)cc1` [Example 294] are 43.4% and above 1 µM.

The record behind these values is patent US11554171B2, “Compounds and methods for the targeted degradation of bromodomain-containing proteins” (Arvinas Operations, Inc., priority 2015, dated 2023).
